Source: patent US10370333B2 (Sanford Burnham Prebys Medical Discovery Institute, priority 2012, dated 2019)

The compounds below were run against TNAP (Homo sapiens (Human), UniProt P05186) (assay: TNAP (PPi) inhibition assay, pyrophosphate as substrate).
Type: biochemical
Procedure: Expression plasmids containing a secreted epitope-tagged TNAP were transfected into COS-1 cells for transient expression. The medium was replaced with Opti-MEM 24 h later and serum-free media containing secreted proteins was collected 60 hours after electroporation. The medium was dialyzed against TBS containing 1 mM MgCl2 and […] (to remove phosphate) and filtered through a […] cellulose acetate filter.
To determine the inhibition selectivity for inhibitor candidates, human TNAP, PLAP or IAP were added to microtiter plates followed by addition of the substrate pNPP (0.5 mM) and activity was measured in 1 M DEA-HCl buffer, pH 9.8 or in 1 M Tris-HCl buffer, pH 7.5, containing 1 mM MgCl2 and 20 μM ZnCl2, in the presence of potential inhibitors (0-30 μM). TNAP, PLAP and IAP activities were adjusted to an approximate λA405 nm, equivalent to 1, measured after 30 min. Residual AP activity in the presence of inhibitors was expressed as percentage of the control activity. To investigate the mechanism of inhibition, double reciprocal plots of enzyme activity (expressed as mA405 nm min−1) vs. substrate concentration were constructed, in the presence of various concentrations of added inhibitors (0-30 μM). The y-axis intercepts of the 1/v vs. 1/[S] plots, were then plotted vs. [I] to graphically extract Ki values as the x-intercept in this plot. […] Inhibitors were further tested and sorted based on their kinetic properties at pH 7.4 using PPi, the relevant natural substrate of TNAP. […] Amounts of released phosphate were measured using the Biomol Green Reagent (Biomol Research Laboratories, Inc., Plymouth Meeting, Pa.).

First: COc1ccc(-c2ccoc2)cc1S(=O)(=O)Nc1cnc2ccccc2c1 [Example II-7, 5-Furan-3-yl-2-methoxy-N-quinolin-3-yl-benzenesulfonamide]
Second: COc1ccc(-c2ccsc2)cc1S(=O)(=O)Nc1cnc2ccccc2c1 [Example II-8, 2-Methoxy-N-quinolin-3-yl-5-thiophen-3-yl-benzenesulfonamide]
The IC50 of the first is lower: 100 to 1000 nM for the first, greater than 1000 nM for the second.

`COc1ccc(-c2ccncc2)cc1S(=O)(=O)Nc1cnc2ccccc2c1` [Example II-9, 2-Methoxy-5-pyridin-4-yl-N-quinolin-3-yl-benzenesulfonamide] and `COc1ccc(C(N)=O)cc1S(=O)(=O)Nc1cnc2ccccc2c1` [Example II-14, 4-Methoxy-3-(quinolin-3-ylsulfamoyl)-benzamide] fall in the same range of IC50: 100 to 1000 nM for the first, 100 to 1000 nM for the second.

First: COc1cc(Cl)ccc1S(=O)(=O)Nc1cnc2ccccc2c1 [Example II-10, 4-Chloro-2-methoxy-N-quinolin-3-yl-benzenesulfonamide]
Second: COc1ccc(S(=O)(=O)Nc2cnc3ccccc3c2)cc1Cl [Example II-11, 3-Chloro-4-methoxy-N-quinolin-3-yl-benzenesulfonamide]
The IC50 of the first is lower: less than 100 nM for the first, greater than 1000 nM for the second. The first is the more potent here.

Compared with `COc1c(Cl)cccc1S(=O)(=O)Nc1cnc2ccccc2c1` [Example II-12, 3-Chloro-2-methoxy-N-quinolin-3-yl-benzenesulfonamide], `COC(=O)c1ccc(OC)c(S(=O)(=O)Nc2cnc3ccccc3c2)c1` [Example II-13, Methyl 4-methoxy-3-(N-(quinolin-3-yl)sulfamoyl)benzoate] is lower in IC50: greater than 1000 nM for the first, less than 100 nM for the second. The second is the more potent here.

First: CNC(=O)c1ccc(OC)c(S(=O)(=O)Nc2cnc3ccccc3c2)c1 [Example II-15, 4-Methoxy-N-methyl-3-(quinolin-3-ylsulfamoyl)-benzamide]
Second: CCNC(=O)c1ccc(OC)c(S(=O)(=O)Nc2cnc3ccccc3c2)c1 [Example II-16, N-Ethyl-4-methoxy-3-(quinolin-3-ylsulfamoyl)-benzamide]
The IC50 of the first is lower: less than 100 nM for the first, 100 to 1000 nM for the second.

`CCCNC(=O)c1ccc(OC)c(S(=O)(=O)Nc2cnc3ccccc3c2)c1` [Example II-17, 4-Methoxy-N-propyl-3-(quinolin-3-ylsulfamoyl)-benzamide] and `COCCNC(=O)c1ccc(OC)c(S(=O)(=O)Nc2cnc3ccccc3c2)c1` [Example II-20, 4-Methoxy-N-(2-methoxy-ethyl)-3-(quinolin-3-ylsulfamoyl)-benzamide] fall in the same range of IC50: 100 to 1000 nM for the first, 100 to 1000 nM for the second.

First: COc1ccc(C(=O)Nc2ccccc2)cc1S(=O)(=O)Nc1cnc2ccccc2c1 [Example II-18, 4-Methoxy-N-phenyl-3-(quinolin-3-ylsulfamoyl)-benzamide]
Second: COc1ccc(C(=O)NCCN(C)C)cc1S(=O)(=O)Nc1cnc2ccccc2c1 [Example II-21, N-(2-Dimethylamino-ethyl)-4-methoxy-3-(quinolin-3-ylsulfamoyl)-benzamide]
The IC50 of the first is higher: greater than 1000 nM for the first, 100 to 1000 nM for the second.

First: COc1ccc(C(=O)NC2CCCCC2)cc1S(=O)(=O)Nc1cnc2ccccc2c1 [Example II-19, N-Cyclohexyl-4-methoxy-3-(quinolin-3-ylsulfamoyl)-benzamide]
Second: COc1ccc(C(=O)N2CCOCC2)cc1S(=O)(=O)Nc1cnc2ccccc2c1 [Example II-23, 2-Methoxy-5-(morpholine-4-carbonyl)-N-quinolin-3-yl-benzenesulfonamide]
The IC50 of the first is higher: greater than 1000 nM for the first, 100 to 1000 nM for the second. The second is the more potent here.

First: COc1ccc(C(=O)N2CCN(C)CC2)cc1S(=O)(=O)Nc1cnc2ccccc2c1 [Example II-22, 2-Methoxy-5-(4-methyl-piperazine-1-carbonyl)-N-quinolin-3-yl-benzenesulfonamide]
Second: COc1ccc(OC)c(S(=O)(=O)Nc2cncc(-c3ccccc3)c2)c1 [Example III-25, N-(5-Phenyl-pyridin-3-yl)-2,5-Dimethoxy-benzenesulfonamide]
The IC50 of the first is higher: greater than 1000 nM for the first, less than 100 nM for the second.

Compared with `COc1ccc(-c2cncc(NS(=O)(=O)c3cc(OC)ccc3OC)c2)cc1` [Example III-1], `COc1ccc(OC)c(S(=O)(=O)Nc2cncc(-c3ccc(C)cc3)c2)c1` [Example III-10, 2,5-Dimethoxy-N-(5-p-tolyl-pyridin-3-yl)-benzenesulfonamide] is higher in IC50: less than 100 nM for the first, 100 to 1000 nM for the second.

`COc1ccc(-c2cncc(NS(=O)(=O)c3cc(Br)ccc3OC)c2)cc1` [Example III-2, 5-Bromo-2-methoxy-N-[5-(4-methoxy-phenyl)-pyridin-3-yl]-benzenesulfonamide] and `COc1ccc(OC)c(S(=O)(=O)Nc2cncc(-c3ccc(Br)cc3)c2)c1` [Example III-22, N-[5-(4-Bromo-phenyl)-pyridin-3-yl]-2,5-dimethoxy-benzenesulfonamide] fall in the same range of IC50: 100 to 1000 nM for the first, 100 to 1000 nM for the second.

`COc1ccc(OC)c(S(=O)(=O)Nc2cncc(-c3ccc(OCc4ccccc4)cc3)c2)c1` [Example III-4, N-(5-(4-(Benzyloxy)phenyl)pyridin-3-yl)-2,5-dimethoxybenzenesulfonamide] and `COc1ccc(Br)cc1S(=O)(=O)Nc1cncc(-c2ccc(OCc3ccccc3)cc2)c1` [Example III-5, N-(5-(4-(Benzyloxy)phenyl)pyridin-3-yl)-5-bromo-2-methoxybenzenesulfonamide] fall in the same range of IC50: 100 to 1000 nM for the first, 100 to 1000 nM for the second.

First: COc1ccc(Cl)cc1S(=O)(=O)Nc1cncc(-c2ccc(OCc3ccccc3)cc2)c1 [Example III-6, N-(5-(4-(benzyloxy)phenyl)pyridin-3-yl)-5-chloro-2-methoxybenzenesulfonamide]
Second: COc1ccc(Cl)cc1S(=O)(=O)Nc1cncc(-c2ccccc2)c1 [Example III-27, 5-Chloro-2-methoxy-N-(5-phenyl-pyridin-3-yl)-benzenesulfonamide]
The IC50 of the first is higher: 100 to 1000 nM for the first, less than 100 nM for the second.

`COc1ccc(OC)c(S(=O)(=O)Nc2cncc(-c3ccc(O)cc3)c2)c1` [Example III-7, N-[5-(4-Hydroxy-phenyl)-pyridin-3-yl]-2,5-dimethoxy-benzenesulfonamide] and `COc1ccc(OC)c(S(=O)(=O)Nc2cncc(-c3ccc(F)cc3)c2)c1` [Example III-16, N-[5-(4-Fluoro-phenyl)-pyridin-3-yl]-2,5-dimethoxy-benzenesulfonamide] cannot be ordered by IC50: less than 100 nM for the first, less than 100 nM for the second.

Compared with `COc1ccc(Br)cc1S(=O)(=O)Nc1cncc(-c2ccc(O)cc2)c1` [Example III-8, 5-Bromo-N-[5-(4-hydroxy-phenyl)-pyridin-3-yl]-2-methoxy-benzenesulfonamide], `COc1ccc(Br)cc1S(=O)(=O)Nc1cncc(-c2ccc(C)cc2)c1` [Example III-11, 5-Bromo-2-methoxy-N-(5-p-tolyl-pyridin-3-yl)-benzenesulfonamide] is higher in IC50: less than 100 nM for the first, 100 to 1000 nM for the second. The first is the more potent here.

`COc1ccc(OC)c(S(=O)(=O)Nc2cncc(-c3ccc(C(F)(F)F)cc3)c2)c1` [Example III-13, 2,5-Dimethoxy-N-(5-(4-(trifluoromethyl)phenyl)pyridin-3-yl)benzenesulfonamide] and `COc1ccc(Br)cc1S(=O)(=O)Nc1cncc(-c2ccc(C(F)(F)F)cc2)c1` [Example III-14, 5-Bromo-2-methoxy-N-(5-(4-(trifluoromethyl)phenyl)pyridin-3-yl)benzenesulfonamide] fall in the same range of IC50: 100 to 1000 nM for the first, 100 to 1000 nM for the second.

Compared with `COc1ccc(Cl)cc1S(=O)(=O)Nc1cncc(-c2ccc(C(F)(F)F)cc2)c1` [Example III-15, 5-Chloro-2-methoxy-N-(5-(4-(trifluoromethyl)phenyl)pyridin-3-yl)benzenesulfonamide], `COc1ccc(Cl)cc1S(=O)(=O)Nc1cncc(-c2ccc(F)cc2)c1` [Example III-18, 5-Chloro-N-[5-(4-fluoro-phenyl)-pyridin-3-yl]-2-methoxy-benzenesulfonamide] is lower in IC50: 100 to 1000 nM for the first, less than 100 nM for the second. The second is the more potent here.

First: COc1ccc(Br)cc1S(=O)(=O)Nc1cncc(-c2ccc(F)cc2)c1 [Example III-17, 5-Bromo-N-[5-(4-fluoro-phenyl)-pyridin-3-yl]-2-methoxy-benzenesulfonamide]
Second: COc1ccc(Br)cc1S(=O)(=O)Nc1cncc(-c2ccc(Cl)cc2)c1 [Example III-20, 5-Bromo-N-[5-(4-chloro-phenyl)-pyridin-3-yl]-2-methoxy-benzenesulfonamide]
The IC50 of the first is lower: less than 100 nM for the first, 100 to 1000 nM for the second. The first is the more potent here.

First: COc1ccc(OC)c(S(=O)(=O)Nc2cncc(-c3ccc(Cl)cc3)c2)c1 [Example III-19, N-[5-(4-Chloro-phenyl)-pyridin-3-yl]-2,5-dimethoxy-benzenesulfonamide]
Second: COC(=O)c1ccc(-c2cncc(NS(=O)(=O)c3cc(OC)ccc3OC)c2)cc1 [Example III-28, 4-[5-(2,5-Dimethoxy-benzenesulfonylamino)-pyridin-3-yl]-benzoic Acid methyl ester]
The IC50 of the first is higher: 100 to 1000 nM for the first, less than 100 nM for the second.

`COc1ccc(Br)cc1S(=O)(=O)Nc1cncc(-c2ccc(Br)cc2)c1` [Example III-23, 5-Bromo-N-[5-(4-bromo-phenyl)-pyridin-3-yl]-2-methoxy-benzenesulfonamide] and `COc1ccc(Cl)cc1S(=O)(=O)Nc1cncc(-c2ccc(Br)cc2)c1` [Example III-24, N-[5-(4-Bromo-phenyl)-pyridin-3-yl]-5-chloro-2-methoxy-benzenesulfonamide] fall in the same range of IC50: 100 to 1000 nM for the first, 100 to 1000 nM for the second.

For `COc1ccc(Br)cc1S(=O)(=O)Nc1cncc(-c2ccccc2)c1` [Example III-26, 5-Bromo-2-methoxy-N-(5-phenyl-pyridin-3-yl)-benzenesulfonamide], the IC50 was less than 100 nM.
